# US20080312344A1, “DENDRIMERS MULTIVALENTLY SUBSTITUTED WITH ACTIVE GROUPS” (priority 2005, published 2008)
# Experiments:
# [1] = target: T1, rat receptor NKRPI (Rattus norvegicus, UniProt P27471); assay: ELISA type assay, interaction with NKRPI receptor; format: binding
# T1 sequence (P27471 1-223): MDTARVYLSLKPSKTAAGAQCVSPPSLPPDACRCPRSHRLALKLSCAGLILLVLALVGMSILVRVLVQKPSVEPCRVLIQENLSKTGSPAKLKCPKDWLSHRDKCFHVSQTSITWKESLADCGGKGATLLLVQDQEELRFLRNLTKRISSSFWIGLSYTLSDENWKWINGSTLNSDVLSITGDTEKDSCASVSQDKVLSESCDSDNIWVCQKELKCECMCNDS
# Protocol: (§1) In addition, as a model for the interference with the natural killer cells of the immune system, the compounds were evaluated in an ELISA type assay for their interaction with the rat receptor NKRPI and the human CD 69 receptor.
# [2] = target: T2, human CD 69 receptor (Homo sapiens, UniProt Q07108); assay: ELISA type assay, interaction with CD 69 receptor; format: binding
# T2 sequence (Q07108 1-199): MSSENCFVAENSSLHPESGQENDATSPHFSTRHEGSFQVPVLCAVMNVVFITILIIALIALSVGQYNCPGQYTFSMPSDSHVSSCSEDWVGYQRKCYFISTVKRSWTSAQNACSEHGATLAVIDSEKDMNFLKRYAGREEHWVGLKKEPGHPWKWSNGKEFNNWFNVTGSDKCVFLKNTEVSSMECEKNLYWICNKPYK
# Protocol: as §1
# [3] = tested on: Candida albicans (strain CBS 562); assay: adhesion inhibition of Candida albicans; format: cell-based; conditions: CBS562
# Protocol: Di-, tetra- and octavalent GINAc-linked “click” glycodendrimers as depicted herein-below were evaluated as adhesion inhibitors of Candida albicans (strain CBS 562) and compared to the free monosaccharide GlcNAc (N-acetyl glucosamine).
−log IC50 (NKRPI) [1],−log IC50 (CD69) [2],SMILES,IC50 ([1]; read-out: −log IC50 (NKRPI) (converted)),inhibition at 113 µM [3],IC50 ([2]; read-out: −log IC50 (CD69) (converted))
8.5,7.54,COC(=O)c1cc(OCCNC(=O)c2cc(OCc3cn(CCCOC4OC(CO)C(O)C(O)C4NC(C)=O)nn3)cc(OCc3cn(CCCOC4OC(CO)C(O)C(O)C4NC(C)=O)nn3)c2)cc(OCCNC(=O)c2cc(OCc3cn(CCCOC4OC(CO)C(O)C(O)C4NC(C)=O)nn3)cc(OCc3cn(CCCOC4OC(CO)C(O)C(O)C4NC(C)=O)nn3)c2)c1 (centres unmarked) [TETRA],–,–,–
–,–,"CC(=O)N[C@H]1C(O)O[C@H](CO)[C@@H](O)[C@@H]1O (some centres unmarked) [GlcNAc, N-acetyl glucosamine, reference compound]",1 µM,79%,5.01 µM
